Test results taken from ChEMBL document CHEMBL5113438, “Discovery of highly potent and selective CRBN-recruiting EGFRL858R/T790M degraders in vivo” (Eur J Med Chem, 2022).

What was measured:
[1] = tested on: NCI-H1299; assay: Antiproliferative activity against human NCI-H1299 cells expressing wild type EGFR incubated for 72 hrs by CCK-8 assay; type: functional, cell-based; conditions: NCI-H1299, 72 h
[2] = tested on: A549; assay: Antiproliferative activity against human A549 cells expressing wild type EGFR incubated for 72 hrs by CCK-8 assay; type: functional, cell-based; conditions: A549, 72 h
[3] = tested on: HCC827; assay: Antiproliferative activity against human NCI-HCC827 cells expressing EGFR del19 incubated for 72 hrs by CCK-8 assay; type: functional, cell-based; conditions: HCC827, 72 h
[4] = tested on: NCI-H1975; assay: Antiproliferative activity against human NCI-H1975 cells expressing EGFR L858R/T790M incubated for 72 hrs by CCK-8 assay; type: functional, cell-based; conditions: NCI-H1975, 72 h
[5] = Selectivity ratio IC50 for human NCI-H1299 cells expressing wild type EGFR to human NCI-H1975 cells expressing EGFR L858R/T790M; type: functional
[6] = tested on: NCI-H1975; assay: Induction of apoptosis in human NCI-H1975 cells assessed as early apoptotic cells at 0.1 uM incubated for 48 hrs by AnnexinV-FITC/propidium iodide staining based flow cytometry analysis (reference value: 0.11 % ); type: functional
[7] = tested on: NCI-H1299; assay: Induction of apoptosis in human NCI-H1299 cells assessed as early apoptotic cells at 1.0 uM incubated for 48 hrs by AnnexinV-FITC/propidium iodide staining based flow cytometry analysis (reference value: 0.11 % ); type: functional
[8] = tested on: NCI-H1975; assay: Induction of apoptosis in human NCI-H1975 cells assessed as viable cells at 0.1 uM incubated for 48 hrs by AnnexinV-FITC/propidium iodide staining based flow cytometry analysis (reference value: 96.2 % ); type: functional; conditions: read-out: Activity
[9] = tested on: NCI-H1975; assay: Induction of apoptosis in human NCI-H1975 cells assessed as viable cells at 1.0 uM incubated for 48 hrs by AnnexinV-FITC/propidium iodide staining based flow cytometry analysis (reference value: 96.2 % ); type: functional; conditions: read-out: Activity
[10] = tested on: NCI-H1975; assay: Induction of apoptosis in human NCI-H1975 cells assessed as late apoptotic cells at 1.0 uM incubated for 48 hrs by AnnexinV-FITC/propidium iodide staining based flow cytometry analysis (reference value: 1.35 % ); type: functional
[11] = tested on: NCI-H1299; assay: Induction of apoptosis in human NCI-H1299 cells assessed as necrotic cells at 1.0 uM incubated for 48 hrs by AnnexinV-FITC/propidium iodide staining based flow cytometry analysis (reference value: 0.24 % ); type: functional
[12] = tested on: NCI-H1299; assay: Induction of apoptosis in human NCI-H1299 cells assessed as late apoptotic cells at 0.1 uM incubated for 48 hrs by AnnexinV-FITC/propidium iodide staining based flow cytometry analysis (reference value: 1.53 % ); type: functional
[13] = tested on: NCI-H1975; assay: Induction of apoptosis in human NCI-H1975 cells assessed as necrotic cells at 1.0 uM incubated for 48 hrs by AnnexinV-FITC/propidium iodide staining based flow cytometry analysis (reference value: 3.28 % ); type: functional
[14] = tested on: NCI-H1299; assay: Induction of apoptosis in human NCI-H1299 cells assessed as viable cells at 0.1 uM incubated for 48 hrs by AnnexinV-FITC/propidium iodide staining based flow cytometry analysis (reference value: 98.05 % ); type: functional; conditions: read-out: Activity
[15] = Plasma protein binding in rat assessed as unbound fraction at 1 uM incubated for 4 hrs by rapid equilibrium dialysis method; type: ADME, cell-free; conditions: read-out: PPB (converted)
[16] = tested on: NCI-H1975; assay: Induction of apoptosis in human NCI-H1975 cells assessed as early apoptotic cells at 1.0 uM incubated for 48 hrs by AnnexinV-FITC/propidium iodide staining based flow cytometry analysis (reference value: 0.11 % ); type: functional
[17] = tested on: NCI-H1299; assay: Induction of apoptosis in human NCI-H1299 cells assessed as late apoptotic cells at 1.0 uM incubated for 48 hrs by AnnexinV-FITC/propidium iodide staining based flow cytometry analysis (reference value: 1.53 % ); type: functional
[18] = tested on: NCI-H1975; assay: Induction of apoptosis in human NCI-H1975 cells assessed as late apoptotic cells at 0.1 uM incubated for 48 hrs by AnnexinV-FITC/propidium iodide staining based flow cytometry analysis (reference value: 1.35 % ); type: functional
[19] = tested on: NCI-H1975; assay: Induction of apoptosis in human NCI-H1975 cells assessed as necrotic cells at 0.1 uM incubated for 48 hrs by AnnexinV-FITC/propidium iodide staining based flow cytometry analysis (reference value: 3.28 % ); type: functional
[20] = tested on: NCI-H1299; assay: Induction of apoptosis in human NCI-H1299 cells assessed as early apoptotic cells at 0.1 uM incubated for 48 hrs by AnnexinV-FITC/propidium iodide staining based flow cytometry analysis (reference value: 0.11 % ); type: functional
[21] = tested on: NCI-H1299; assay: Induction of apoptosis in human NCI-H1299 cells assessed as necrotic cells at 0.1 uM incubated for 48 hrs by AnnexinV-FITC/propidium iodide staining based flow cytometry analysis (reference value: 0.24 % ); type: functional
[22] = tested on: NCI-H1299; assay: Induction of apoptosis in human NCI-H1299 cells assessed as viable cells at 1.0 uM incubated for 48 hrs by AnnexinV-FITC/propidium iodide staining based flow cytometry analysis (reference value: 98.05 % ); type: functional; conditions: read-out: Activity
[23] = target: von Hippel-Lindau disease tumor suppressor/Epidermal growth factor receptor (Homo sapiens, UniProt P00533+P40337, L858R/T790M); assay: Protac activity at VHL/EGFR L858R/T790M mutant in human NCI-H1975 cells assessed as induction of degradation of EGFR incubated for 24 hrs in presence of afatinib by immunoblot analysis; type: cell-based
[24] = tested on: BaF3; assay: Antiproliferative activity against mouse BaF3 harbouring EGFR L858R/T790M/C797S mutant assessed as inhibition of cell growth incubated for 72 hrs by MTS assay; type: functional, cell-based; conditions: BaF3, 72 h
[25] = tested on: BaF3; assay: Antiproliferative activity against mouse BaF3 harbouring EGFR L858R/T790M mutant assessed as inhibition of cell growth incubated for 72 hrs by MTS assay; type: functional, cell-based; conditions: BaF3, 72 h
[26] = tested on: BaF3; assay: Antiproliferative activity against mouse BaF3 harbouring EGFR L858R/T790M/L718Q mutant assessed as inhibition of cell growth incubated for 72 hrs by MTS assay; type: functional, cell-based; conditions: BaF3, 72 h

Sequence of von Hippel-Lindau disease tumor suppressor/Epidermal growth factor receptor (P00533 25-1210 T790M/L858R limits assumed, stated change not applied): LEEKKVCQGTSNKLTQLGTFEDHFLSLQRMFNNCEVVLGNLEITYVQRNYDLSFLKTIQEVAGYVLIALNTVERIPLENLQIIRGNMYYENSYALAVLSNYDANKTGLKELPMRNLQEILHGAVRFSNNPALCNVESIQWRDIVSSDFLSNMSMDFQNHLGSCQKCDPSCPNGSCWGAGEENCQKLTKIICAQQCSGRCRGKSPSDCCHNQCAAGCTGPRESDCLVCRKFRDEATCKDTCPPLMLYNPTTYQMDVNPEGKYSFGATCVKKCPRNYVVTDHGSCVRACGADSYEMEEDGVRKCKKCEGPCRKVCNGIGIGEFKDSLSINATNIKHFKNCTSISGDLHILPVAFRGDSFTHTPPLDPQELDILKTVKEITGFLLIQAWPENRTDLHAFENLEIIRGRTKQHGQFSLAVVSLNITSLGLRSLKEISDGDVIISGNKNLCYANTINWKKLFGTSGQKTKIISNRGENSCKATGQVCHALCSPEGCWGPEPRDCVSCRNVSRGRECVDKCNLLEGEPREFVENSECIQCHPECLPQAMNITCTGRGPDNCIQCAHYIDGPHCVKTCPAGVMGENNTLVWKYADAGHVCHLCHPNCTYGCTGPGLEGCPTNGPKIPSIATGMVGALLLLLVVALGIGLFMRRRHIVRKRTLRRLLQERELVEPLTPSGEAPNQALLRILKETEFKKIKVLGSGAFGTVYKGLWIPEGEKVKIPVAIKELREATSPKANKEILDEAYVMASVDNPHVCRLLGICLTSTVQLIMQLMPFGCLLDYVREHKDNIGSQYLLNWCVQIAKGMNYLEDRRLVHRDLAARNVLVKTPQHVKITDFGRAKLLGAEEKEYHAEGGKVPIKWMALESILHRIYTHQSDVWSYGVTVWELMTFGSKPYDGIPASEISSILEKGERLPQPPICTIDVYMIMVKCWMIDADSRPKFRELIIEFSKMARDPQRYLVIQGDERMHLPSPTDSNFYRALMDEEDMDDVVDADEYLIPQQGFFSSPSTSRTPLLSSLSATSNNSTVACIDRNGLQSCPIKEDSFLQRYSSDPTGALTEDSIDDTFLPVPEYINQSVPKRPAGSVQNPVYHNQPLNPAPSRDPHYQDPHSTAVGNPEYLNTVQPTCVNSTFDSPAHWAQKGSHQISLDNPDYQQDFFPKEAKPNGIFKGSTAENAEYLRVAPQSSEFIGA
Sequence of von Hippel-Lindau disease tumor suppressor/Epidermal growth factor receptor (P40337 whole entry, stated change not applied): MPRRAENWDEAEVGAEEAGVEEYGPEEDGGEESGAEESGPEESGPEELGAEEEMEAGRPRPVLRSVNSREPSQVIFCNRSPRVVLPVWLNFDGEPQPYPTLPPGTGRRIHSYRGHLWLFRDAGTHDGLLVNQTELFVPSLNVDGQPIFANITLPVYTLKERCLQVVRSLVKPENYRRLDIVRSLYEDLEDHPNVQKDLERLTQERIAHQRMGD

| IC50 [1] | IC50 [2] | IC50 [3] | IC50 [4] | SMILES | Ratio IC50 [5] | other results |
| --- | --- | --- | --- | --- | --- | --- |
| > 100 µM | > 100 µM | 0.649 µM | 3.56 µM | C#CCN(CCCCCC(=O)Nc1cccc2c1CN(C1CCC(=O)NC1=O)C2=O)CCN(C)c1cc(OC)c(Nc2nccc(-c3cn(C)c4ccccc34)n2)cc1NC(=O)C=C (stereo unspecified) | 28 |  |
| > 100 µM | > 100 µM | 0.309 µM | 1.02 µM | C#CCN(CCCCC(=O)Nc1cccc2c1CN(C1CCC(=O)NC1=O)C2=O)CCN(C)c1cc(OC)c(Nc2nccc(-c3cn(C)c4ccccc34)n2)cc1NC(=O)C=C (stereo unspecified) | 98 |  |
|  |  |  |  | Cc1ccsc1-c1ccc(CNC(=O)[C@@H]2C[C@@H](O)CN2C(=O)[C@@H](NC(=O)CCCCCOCCCCOCCCCOc2cc3ncnc(Nc4ccc(F)c(Cl)c4)c3cc2NC(=O)/C=C/CN(C)C)C(C)(C)C)cc1 |  | EC50 [23]: 0.216 µM |
| > 100 µM | > 100 µM | 2.65 µM | 6.8 µM | C#CCN(CCCCCCCCCC(=O)Nc1cccc2c1CN(C1CCC(=O)NC1=O)C2=O)CCN(C)c1cc(OC)c(Nc2nccc(-c3cn(C)c4ccccc34)n2)cc1NC(=O)C=C (stereo unspecified) | 14 |  |
| > 100 µM | > 100 µM | 0.457 µM | 1.36 µM | C#CCN(CCCCCCCC(=O)Nc1cccc2c1CN(C1CCC(=O)NC1=O)C2=O)CCN(C)c1cc(OC)c(Nc2nccc(-c3cn(C)c4ccccc34)n2)cc1NC(=O)C=C (stereo unspecified) | 74 |  |
| > 100 µM | > 100 µM | 0.358 µM | 1.11 µM | C#CCN(CCCCCCC(=O)Nc1cccc2c1CN(C1CCC(=O)NC1=O)C2=O)CCN(C)c1cc(OC)c(Nc2nccc(-c3cn(C)c4ccccc34)n2)cc1NC(=O)C=C (stereo unspecified) | 90 |  |
|  |  |  |  | O=C1CCC(N2C(=O)c3cccc(NCCOCCOCCOCCN4CCN(c5ccc(-c6ccc7c(c6)C(=O)N(C(C(=O)Nc6nccs6)c6ccccc6)C7)cn5)CC4)c3C2=O)C(=O)N1 (stereo unspecified) |  | IC50 [24]: 0.041 µM; IC50 [25]: 0.05 µM; IC50 [26]: 0.028 µM |
| > 100 µM | > 100 µM | 1.16 µM | 3.23 µM | C#CCN(CCCCCCCCC(=O)Nc1cccc2c1CN(C1CCC(=O)NC1=O)C2=O)CCN(C)c1cc(OC)c(Nc2nccc(-c3cn(C)c4ccccc34)n2)cc1NC(=O)C=C (stereo unspecified) | 31 |  |

| SMILES | IC50 [1] | IC50 [2] | IC50 [3] | IC50 [4] | Ratio IC50 [5] | other results |
| --- | --- | --- | --- | --- | --- | --- |
| C=CC(=O)Nc1cc(Nc2nccc(-c3cn(C)c4ccccc34)n2)c(OC)cc1N(C)CCN(C)C [OSIMERTINIB] | 3.24 µM | 0.445 µM | 0.00248 µM | […] | […] | Activity [6]: […]; Activity [7]: 0.075%; viability at 0.1 µM [8]: 90.1%; viability at 1 µM [9]: 56.4%; Activity [10]: 34.7%; Activity [11]: 0.5%; Activity [12]: […]; Activity [13]: 7.27%; viability at 0.1 µM [14]: 98.2%; fraction unbound at 4 h, 1 µM [15]: 0.0133; Activity [16]: 1.7%; Activity [17]: 2.14%; Activity [18]: 3.83%; Activity [19]: 6.89%; Activity [20]: 0.08%; Activity [21]: 0.34%; viability at 1 µM [22]: 97.3% |
